The source of these data is ChEMBL document CHEMBL3797055, “Glabridin-chalcone hybrid molecules: drug resistance reversal agent against clinical isolates of methicillin-resistant Staphylococcus aureus” (Medchemcomm, 2016).

Format in all cases: functional
Assay [1] concerns Staphylococcus aureus. The assay can be described thus: Antibacterial activity against clinical isolates of methicillin-resistant Staphylococcus aureus P4629 by broth microdilution assay. For orientation: Broth dilution looks for growth in wells or tubes with falling amounts of substance.
The test system of assay [2] is Staphylococcus aureus. The assay can be described thus: Antibacterial activity against clinical isolates of methicillin-resistant Staphylococcus aureus P4650 by broth microdilution assay.
Assay [3] has as its system Staphylococcus aureus. The assay is described as follows: Antibacterial activity against clinical isolates of methicillin-resistant Staphylococcus aureus ST2071 by broth microdilution assay.
Assay [4] has as its system Staphylococcus aureus. The assay can be described thus: Antibacterial activity against Staphylococcus aureus MTCC 96 by broth microdilution assay.
The subject of assay [5] is Staphylococcus aureus. The assay can be described thus: Antibacterial activity against clinical isolates of methicillin-resistant Staphylococcus aureus ST10342 by broth microdilution assay.
The subject of assay [6] is Staphylococcus aureus. The assay can be described thus: Antibacterial activity against clinical isolates of methicillin-resistant Staphylococcus aureus P4423 by broth microdilution assay.
Assay [7] deals with Staphylococcus aureus. The assay can be described thus: Antibacterial activity against clinical isolates of methicillin-resistant Staphylococcus aureus ST10760 by broth microdilution assay.

≈ marks a conversion by molar mass, not a printed value.

Usually MIC stands for the least concentration at which growth counts as inhibited. For the compound `COc1ccc([C@@H]2COc3c(cc(/C=C/C(=O)c4ccccc4OC)c4c3C=CC(C)(C)O4)C2)c(OC)c1`, the MIC turned out to be 25 µg/mL (≈ 48.8 µM) in the assay on Staphylococcus aureus [1]; 25 µg/mL (≈ 48.8 µM) in the assay with Staphylococcus aureus [2]; 50 µg/mL (≈ 97.5 µM) against Staphylococcus aureus [3]; 25 µg/mL (≈ 48.8 µM) with Staphylococcus aureus [4]; 50 µg/mL (≈ 97.5 µM) against Staphylococcus aureus [5]; 50 µg/mL (≈ 97.5 µM) with Staphylococcus aureus [6]. In the assay with Staphylococcus aureus [7], this compound came in with an MIC of 50 µg/mL (≈ 97.5 µM).

`CCn1cc(C(=O)O)c(=O)c2cc(F)c(N3CCNCC3)cc21` [NORFLOXACIN]: the MIC against Staphylococcus aureus [1] is 500 µg/mL (≈ 1570 µM); against Staphylococcus aureus [2], 125 µg/mL (≈ 391 µM); against Staphylococcus aureus [3], 500 µg/mL (≈ 1570 µM); in the assay on Staphylococcus aureus [4] it was 1.56 µg/mL (≈ 4.89 µM); against Staphylococcus aureus [5], 250 µg/mL (≈ 783 µM); in the assay on Staphylococcus aureus [6], 250 µg/mL (≈ 783 µM). The compound also came in with an MIC with Staphylococcus aureus [7] of 500 µg/mL (≈ 1570 µM).

With `COc1cc(OC)c([C@@H]2COc3c(cc(/C=C/C(=O)c4cc(OC)c(OC)c(OC)c4)c4c3C=CC(C)(C)O4)C2)cc1/C=C/C(=O)c1cc(OC)c(OC)c(OC)c1`, the MIC in the assay on Staphylococcus aureus [1] is 100 µg/mL (≈ 126 µM); against Staphylococcus aureus [2] it was 100 µg/mL (≈ 126 µM); with Staphylococcus aureus [3], 100 µg/mL (≈ 126 µM); against Staphylococcus aureus [4], 50 µg/mL (≈ 63.1 µM); against Staphylococcus aureus [5], 100 µg/mL (≈ 126 µM); in the assay on Staphylococcus aureus [6], 100 µg/mL (≈ 126 µM). The compound further yielded an MIC in the assay on Staphylococcus aureus [7] of 100 µg/mL (≈ 126 µM).

As to `COc1cc(OC)c([C@@H]2COc3c(cc(/C=C/C(=O)c4ccccc4)c4c3C=CC(C)(C)O4)C2)cc1/C=C/C(=O)c1ccccc1`, the MIC with Staphylococcus aureus [1], against Staphylococcus aureus [2], against Staphylococcus aureus [3], in the assay with Staphylococcus aureus [4], against Staphylococcus aureus [5] and with Staphylococcus aureus [6] was 25 µg/mL (≈ 40.8 µM) throughout. This compound displayed a minimal inhibitory concentration (MIC) against Staphylococcus aureus [7] of 25 µg/mL (≈ 40.8 µM).

Consider `COc1cccc(C(=O)/C=C/c2cc3c(c4c2OC(C)(C)C=C4)OC[C@@H](c2ccc(OC)cc2OC)C3)c1`, for which the MIC against Staphylococcus aureus [1], in the assay on Staphylococcus aureus [2], in the assay on Staphylococcus aureus [3], in the assay with Staphylococcus aureus [4], against Staphylococcus aureus [5] and in the assay with Staphylococcus aureus [6] was 25 µg/mL (≈ 48.8 µM) each time. For the same compound, in the assay on Staphylococcus aureus [7], the MIC came to 25 µg/mL (≈ 48.8 µM).

Turning to `COc1cc(OC)c([C@@H]2COc3c(cc(/C=C/C(=O)c4ccc[nH]4)c4c3C=CC(C)(C)O4)C2)cc1/C=C/C(=O)c1ccc[nH]1`, the MIC in the assay on Staphylococcus aureus [1], with Staphylococcus aureus [2], in the assay on Staphylococcus aureus [3], with Staphylococcus aureus [4], against Staphylococcus aureus [5] and with Staphylococcus aureus [6] was 50 µg/mL (≈ 84.6 µM) in each case. The same compound displayed an MIC against Staphylococcus aureus [7] of 50 µg/mL (≈ 84.6 µM).

As to `COc1ccc([C@@H]2COc3c(cc(C=O)c4c3C=CC(C)(C)O4)C2)c(OC)c1`, the MIC with Staphylococcus aureus [1], with Staphylococcus aureus [2], in the assay on Staphylococcus aureus [3], against Staphylococcus aureus [4], in the assay with Staphylococcus aureus [5] and in the assay on Staphylococcus aureus [6] was greater than 100 µg/mL throughout. Further, in the assay with Staphylococcus aureus [7], the MIC is greater than 100 µg/mL.

`COc1cc(OC)c([C@@H]2COc3c(ccc4c3C=CC(C)(C)O4)C2)cc1/C=C/C(=O)c1cc(OC)c(OC)c(OC)c1`: the MIC against Staphylococcus aureus [1], with Staphylococcus aureus [2], against Staphylococcus aureus [3], in the assay with Staphylococcus aureus [4], against Staphylococcus aureus [5] and with Staphylococcus aureus [6] was 25 µg/mL (≈ 43.7 µM) each time. The compound further had an MIC against Staphylococcus aureus [7] of 25 µg/mL (≈ 43.7 µM).

`COc1ccc([C@@H]2COc3c(cc(/C=C/C(=O)c4ccc[nH]4)c4c3C=CC(C)(C)O4)C2)c(OC)c1`: the minimal inhibitory concentration (MIC) in the assay on Staphylococcus aureus [1] was greater than 100 µg/mL; in the assay with Staphylococcus aureus [2] it was greater than 100 µg/mL; in the assay on Staphylococcus aureus [3], greater than 100 µg/mL; in the assay with Staphylococcus aureus [4], 100 µg/mL (≈ 212 µM); in the assay on Staphylococcus aureus [5], greater than 100 µg/mL; against Staphylococcus aureus [6] it was greater than 100 µg/mL. In the assay on Staphylococcus aureus [7], this compound returned an MIC greater than 100 µg/mL.

`COc1cc(OC)c([C@@H]2COc3c(cc(C=O)c4c3C=CC(C)(C)O4)C2)cc1C=O`: the MIC against Staphylococcus aureus [1], with Staphylococcus aureus [2], with Staphylococcus aureus [3], against Staphylococcus aureus [4], in the assay on Staphylococcus aureus [5] and with Staphylococcus aureus [6] was greater than 100 µg/mL in each case. In addition, the minimal inhibitory concentration (MIC) against Staphylococcus aureus [7] is greater than 100 µg/mL.
